Assay results: ChEMBL document CHEMBL1201862, “PubChem BioAssay data set” (2004)
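Step 1: Grow cells in 96-well plates. Step 2: Expose to compound for 48 hours at 5 concentrations. Step 3: Interpolate endpoints linearly; if unreached, use highest concentration. GI50 = concentration required for 50% inhibition of growth.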 Activity calls are given as the source filed them. Rule as the data show it: active = GI50 up to about 1.1 µM and inactive = higher.

Assays:
Test in all cases: inhibition of tumour cell growth, NCI panel, 48 h
U-251 = test system: U-251
MDA-MB-231 = test system: MDA-MB-231
ACHN = test system: ACHN
SK-OV-3 = test system: SK-OV-3
MCF7 = test system: MCF7
T47D = test system: T47D
UACC-257 = test system: UACC-257
NCI-H226 = test system: NCI-H226
HT-29 = test system: HT-29
RXF 393 = test system: RXF 393
SF-539 = test system: SF-539
RPMI-8226 = test system: RPMI-8226
SK-MEL-5 = test system: SK-MEL-5
NCI-H522 = test system: NCI-H522
HOP-92 = test system: HOP-92
SW-620 = test system: SW-620
Malme-3M = test system: Malme-3M
SN12C = test system: SN12C
UO-31 = test system: UO-31
SNB-19 = test system: SNB-19

SMILES	GI50 (U-251)	GI50 (MDA-MB-231)	GI50 (ACHN)	GI50 (SK-OV-3)	GI50 (MCF7)	GI50 (T47D)	GI50 (UACC-257)	GI50 (NCI-H226)	GI50 (HT-29)	GI50 (RXF 393)	GI50 (SF-539)	GI50 (RPMI-8226)	GI50 (SK-MEL-5)	GI50 (NCI-H522)	GI50 (HOP-92)	GI50 (SW-620)	GI50 (Malme-3M)	GI50 (SN12C)	GI50 (UO-31)	GI50 (SNB-19)
O=C1CC(=O)NC(NN2C(=O)CSC2c2ccc(Cl)cc2)=N1 (configuration not stated)	36.4 µM (inactive)	36.7 µM (inactive)	> 100 µM (inactive)	> 100 µM (inactive)	61.1 µM (inactive)	> 100 µM (inactive)	> 100 µM (inactive)	> 100 µM (inactive)	34.1 µM (inactive)	> 100 µM (inactive)	> 100 µM (inactive)	> 100 µM (inactive)	> 100 µM (inactive)	> 100 µM (inactive)	> 100 µM (inactive)	> 100 µM (inactive)	65.8 µM (inactive)	18.4 µM (inactive)	21.3 µM (inactive)	
O=C(O)[C@H]1NC[C@@H]2ON=C(Br)[C@@H]21	> 100 µM (inactive)	> 100 µM (inactive)	> 100 µM (inactive)	> 100 µM (inactive)	> 100 µM (inactive)	> 100 µM (inactive)	> 100 µM (inactive)	> 100 µM (inactive)	> 100 µM (inactive)	> 100 µM (inactive)	> 100 µM (inactive)	> 100 µM (inactive)	> 100 µM (inactive)	> 100 µM (inactive)	> 100 µM (inactive)	> 100 µM (inactive)	> 100 µM (inactive)	> 100 µM (inactive)	> 100 µM (inactive)	> 100 µM (inactive)
Cc1ncc([N+](=O)[O-])n1CCNC(=O)CCC(=O)NCCCn1ccnc1[N+](=O)[O-]	> 100 µM (inactive)	> 100 µM (inactive)	> 100 µM (inactive)	> 100 µM (inactive)	> 100 µM (inactive)	> 100 µM (inactive)	> 100 µM (inactive)	> 100 µM (inactive)	> 100 µM (inactive)	> 100 µM (inactive)	> 100 µM (inactive)	> 100 µM (inactive)	> 100 µM (inactive)	> 100 µM (inactive)	54 µM (inactive)	> 100 µM (inactive)	> 100 µM (inactive)	> 100 µM (inactive)	> 100 µM (inactive)	
O=C(O)CCc1nc2c(n1-c1ccccc1)C(=O)c1ccccc1C2=O	> 100 µM (inactive)	> 100 µM (inactive)	> 100 µM (inactive)	> 100 µM (inactive)	97.7 µM (inactive)	64.7 µM (inactive)	> 100 µM (inactive)	> 100 µM (inactive)	> 100 µM (inactive)	> 100 µM (inactive)	> 100 µM (inactive)	> 100 µM (inactive)	> 100 µM (inactive)	38.5 µM (inactive)	0.0226 µM (active)	> 100 µM (inactive)		> 100 µM (inactive)	> 100 µM (inactive)	> 100 µM (inactive)
CN(C)c1ccc(/C=C2\C[C@H]3[C@@H]4CCc5cc(OCCN6CCCC6)ccc5[C@H]4CC[C@]3(C)[C@H]2O)cc1	3.75 µM (inactive)	7.14 µM (inactive)	18.1 µM (inactive)	16.6 µM (inactive)	7.35 µM (inactive)	23.3 µM (inactive)	6.11 µM (inactive)	18.7 µM (inactive)	3.57 µM (inactive)	13.7 µM (inactive)	8.32 µM (inactive)	8.28 µM (inactive)	9.66 µM (inactive)	4.26 µM (inactive)	6.07 µM (inactive)	6.53 µM (inactive)	11.5 µM (inactive)	16.9 µM (inactive)	5.65 µM (inactive)	18.7 µM (inactive)
O=C(O)C(=Cc1ccc(-c2ccccc2)cc1)C(=O)O	12.5 µM (inactive)	14.9 µM (inactive)	18.6 µM (inactive)	12.6 µM (inactive)	11.5 µM (inactive)	11 µM (inactive)	11.1 µM (inactive)	22 µM (inactive)	> 25.8 µM (inactive)	4.02 µM (inactive)	4.78 µM (inactive)	4.26 µM (inactive)	11 µM (inactive)	6.82 µM (inactive)	23.8 µM (inactive)	11.3 µM (inactive)	14.7 µM (inactive)	11.5 µM (inactive)	12.4 µM (inactive)	13.6 µM (inactive)
COc1ccccc1N1C(=O)CS(=O)(=O)C1c1cccc(Oc2ccccc2)c1 (configuration not stated)	16.1 µM (inactive)	15.5 µM (inactive)	19 µM (inactive)	23.8 µM (inactive)	6.21 µM (inactive)	15.6 µM (inactive)	11.9 µM (inactive)	14.6 µM (inactive)	21.4 µM (inactive)	16.9 µM (inactive)	16 µM (inactive)		14.4 µM (inactive)	12.6 µM (inactive)	10.8 µM (inactive)	19.4 µM (inactive)	15 µM (inactive)	17.1 µM (inactive)	19.9 µM (inactive)	18 µM (inactive)
COc1cccc(/C=C/c2ccnc3ccccc23)c1OC	> 10 µM (inactive)	> 10 µM (inactive)	> 10 µM (inactive)	> 10 µM (inactive)	> 10 µM (inactive)	8.17 µM (inactive)	> 10 µM (inactive)	> 10 µM (inactive)	9.86 µM (inactive)	> 10 µM (inactive)	> 10 µM (inactive)	2.27 µM (inactive)	6.89 µM (inactive)	> 10 µM (inactive)	1.08 µM (active)	> 10 µM (inactive)	> 10 µM (inactive)	> 10 µM (inactive)	> 10 µM (inactive)	> 10 µM (inactive)
CN1CCN(CCCCNc2cc3c4ccccc4c(NCCCCN4CCN(C)CC4)cc3c3ccccc23)CC1	1.68 µM (inactive)	1.62 µM (inactive)	4.06 µM (inactive)	14.6 µM (inactive)	1.34 µM (inactive)	18.6 µM (inactive)	4.79 µM (inactive)	13.4 µM (inactive)	1.95 µM (inactive)	1.41 µM (inactive)	1.94 µM (inactive)	1.38 µM (inactive)	1.44 µM (inactive)	1.93 µM (inactive)	6.61 µM (inactive)	1.43 µM (inactive)	2.15 µM (inactive)	2.61 µM (inactive)	2.69 µM (inactive)	4.49 µM (inactive)
CCOc1ccc2nc(NC(=O)/C(CC(=O)CC(C3=C(O)c4ccccc4CC3=O)c3ccccc3)=N\O)sc2c1 (configuration not stated)	> 100 µM (inactive)	> 100 µM (inactive)	> 100 µM (inactive)	> 100 µM (inactive)	> 100 µM (inactive)	> 100 µM (inactive)	> 100 µM (inactive)	> 100 µM (inactive)	> 100 µM (inactive)	> 100 µM (inactive)	> 100 µM (inactive)	> 100 µM (inactive)	> 100 µM (inactive)	> 100 µM (inactive)	> 100 µM (inactive)	> 100 µM (inactive)	> 100 µM (inactive)	> 100 µM (inactive)	> 100 µM (inactive)	> 100 µM (inactive)
C=C(C)[C@H]1CC[C@@]23O[C@@H]2[C@@H](C[C@@]2(C)CC(=O)[C@H](CC(=O)C1)O2)OC(=O)[C@@]12CC[C@H](C(=C)C)CC(=O)C[C@H]4O[C@](C)(CC4=O)C[C@@H](OC3=O)[C@@H]1O2 [SINGARDIN]	> 100 µM (inactive)	> 100 µM (inactive)	> 100 µM (inactive)	> 100 µM (inactive)	> 100 µM (inactive)	> 100 µM (inactive)	> 100 µM (inactive)	> 100 µM (inactive)	> 100 µM (inactive)	> 100 µM (inactive)	> 100 µM (inactive)	> 100 µM (inactive)	74.5 µM (inactive)	> 100 µM (inactive)	> 100 µM (inactive)		> 100 µM (inactive)	> 100 µM (inactive)	> 100 µM (inactive)	> 100 µM (inactive)
CC(=O)O[C@@H]1[C@@H](C)[C@]2(CC(c3ccoc3)OC2O)C2CCC3O[C@]3(C)[C@]2(C)[C@@H]1OC(C)=O (some centres not stated)	83 µM (inactive)	> 100 µM (inactive)	38 µM (inactive)	> 100 µM (inactive)	41.5 µM (inactive)	28.5 µM (inactive)	29.4 µM (inactive)	27.7 µM (inactive)	32 µM (inactive)	35.1 µM (inactive)	22.7 µM (inactive)	25.9 µM (inactive)	25.4 µM (inactive)	27.9 µM (inactive)	34 µM (inactive)	36.4 µM (inactive)		39 µM (inactive)	37.2 µM (inactive)	> 100 µM (inactive)
COC(=O)C1C(O)CCC2CN3CCc4c([nH]c5cccc(OC)c45)C3CC21 (configuration not stated)	> 100 µM (inactive)	> 100 µM (inactive)	> 100 µM (inactive)	> 100 µM (inactive)	> 100 µM (inactive)	> 100 µM (inactive)	> 100 µM (inactive)	> 100 µM (inactive)	> 100 µM (inactive)	59.2 µM (inactive)	> 100 µM (inactive)	> 100 µM (inactive)		> 100 µM (inactive)	> 100 µM (inactive)	> 100 µM (inactive)	> 100 µM (inactive)	> 100 µM (inactive)	76 µM (inactive)	> 100 µM (inactive)
CC(=O)c1sc2c(c1OC(=O)c1ccco1)c(=O)n(-c1ccccc1)c(=S)n2-c1ccccc1	23.3 µM (inactive)	21.5 µM (inactive)		16 µM (inactive)	22.6 µM (inactive)	13 µM (inactive)	27.5 µM (inactive)	3.58 µM (inactive)	6 µM (inactive)	12.9 µM (inactive)	4.19 µM (inactive)	4.89 µM (inactive)	5.81 µM (inactive)	19.9 µM (inactive)	5.43 µM (inactive)	26.6 µM (inactive)	5.08 µM (inactive)	26 µM (inactive)	20.3 µM (inactive)	28.2 µM (inactive)
